The results in this text go back to ChEMBL document CHEMBL4257534, “Curcumin-based pyrazoline analogues as selective inhibitors of human monoamine oxidase A” (Medchemcomm, 2018).

A short description of data set [1]: in vitro. Particulars: PAMPA; call rule not given here.
The target in data set [2] is T1, Amine oxidase [flavin-containing] A (Homo sapiens, UniProt P21397).
T1 sequence (P21397 whole entry): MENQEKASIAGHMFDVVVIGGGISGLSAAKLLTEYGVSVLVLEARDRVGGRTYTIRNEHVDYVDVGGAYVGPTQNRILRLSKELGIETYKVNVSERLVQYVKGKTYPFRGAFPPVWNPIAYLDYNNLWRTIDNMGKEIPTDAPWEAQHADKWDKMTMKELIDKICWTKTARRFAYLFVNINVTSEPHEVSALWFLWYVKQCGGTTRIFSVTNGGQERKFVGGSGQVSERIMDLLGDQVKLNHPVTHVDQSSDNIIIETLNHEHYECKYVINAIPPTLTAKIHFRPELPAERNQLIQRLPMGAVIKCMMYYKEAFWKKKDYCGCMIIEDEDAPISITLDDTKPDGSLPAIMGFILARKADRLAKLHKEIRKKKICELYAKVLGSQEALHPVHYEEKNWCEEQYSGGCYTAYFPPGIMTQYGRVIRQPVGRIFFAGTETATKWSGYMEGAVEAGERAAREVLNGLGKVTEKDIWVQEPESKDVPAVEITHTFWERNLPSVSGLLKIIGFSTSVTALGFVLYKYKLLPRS
In words: Suicide inhibition of recombinant human MAO-A assessed as reduction in H2O2 production preincubated for 30 mins followed by p-tyramine substrate addition measured after 30 mins by Lineweaver-Burk plot analysis. To be noted: 0.5 h.

For data set [3], the target named is T1, Amine oxidase [flavin-containing] A. Put plainly: Irreversible inhibition of recombinant human MAO-A at 5 time Ki value preincubated for 15 mins followed by dilution of enzyme-inhibitor mixture for 24 hrs and subsequent p-tyramine substrate addition by dialysis method.
For data set [4] the target is unchanged. Put plainly: Inhibition of recombinant human MAO-A assessed as reduction in H2O2 production preincubated for 30 mins followed by p-tyramine substrate addition measured after 30 mins by amplex red reagent based fluorescence assay.
Data set [5] concerns the target T2, Amine oxidase [flavin-containing] B (Homo sapiens, UniProt P27338).
T2 sequence (P27338 whole entry): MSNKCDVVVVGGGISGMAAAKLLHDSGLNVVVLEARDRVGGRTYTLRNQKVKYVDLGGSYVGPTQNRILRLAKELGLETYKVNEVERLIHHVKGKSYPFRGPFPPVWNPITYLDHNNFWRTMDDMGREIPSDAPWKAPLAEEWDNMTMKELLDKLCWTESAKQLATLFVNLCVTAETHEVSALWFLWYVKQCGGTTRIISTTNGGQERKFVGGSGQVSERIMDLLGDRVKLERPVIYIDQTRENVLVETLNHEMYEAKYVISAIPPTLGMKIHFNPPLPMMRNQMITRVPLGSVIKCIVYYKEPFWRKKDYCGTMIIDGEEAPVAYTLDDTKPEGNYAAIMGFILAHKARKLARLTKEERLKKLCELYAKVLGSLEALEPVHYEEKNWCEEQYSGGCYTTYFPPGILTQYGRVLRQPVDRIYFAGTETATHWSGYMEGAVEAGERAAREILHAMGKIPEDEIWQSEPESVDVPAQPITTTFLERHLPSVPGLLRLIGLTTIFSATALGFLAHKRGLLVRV
Description: Inhibition of recombinant human MAO-B assessed as reduction in H2O2 production preincubated for 30 mins followed by p-tyramine substrate addition measured after 30 mins by amplex red reagent based fluorescence assay

For data set [6], the species on record is Homo sapiens. Put plainly: Selectivity index, ratio of Ki for recombinant human MAO-B to Ki for recombinant human MAO-A.
For data set [7], the target named is T1, Amine oxidase [flavin-containing] A. Put plainly: Competitive inhibition of recombinant human MAO-A assessed as reduction in H2O2 production preincubated for 30 mins followed by p-tyramine substrate addition measured after 30 mins by Lineweaver-Burk plot analysis. Particulars: 0.5 h.
For data set [8] the target is unchanged. Put plainly: Reversible inhibition of recombinant human MAO-A assessed as enzyme activity recovery at 5 time Ki value preincubated for 15 mins followed by dilution of enzyme-inhibitor mixture for 24 hrs and subsequent p-tyramine substrate addition by dialysis method.
Data set [9] is described as follows: Cytotoxicity against human HepG2 cells assessed as cell viability at 1 uM after 24 hrs by MTT assay relative to control. The class given is cell-based. Particulars: read-out: Activity. A general note: Tetrazolium dyes change colour on reduction, which living cells bring about.
A short description of data set [10]: Cytotoxicity against human HepG2 cells assessed as cell viability at 5 uM after 24 hrs by MTT assay relative to control. The class given is cell-based. To be noted: read-out: Activity.
The nature of data set [11]: Cytotoxicity against human HepG2 cells assessed as cell viability at 25 uM after 24 hrs by MTT assay relative to control. To be noted: read-out: Activity. In kind it is cell-based.

Structures are written as SMILES.

The term Papp denotes a coefficient for how fast a substance crosses the barrier. Low readings indicate poor permeation, high ones ready permeation. For the compound `CCn1cc(C(=O)O)c(=O)c2cc(F)c(N3CCNC(C)C3)c(F)c21` (configuration not stated) [LOMEFLOXACIN], in [1], the Papp at 16 h, 50 ug/ml is 1.24 ×10⁻⁶ cm/s.
Take `C#CCN(C)[C@H](C)Cc1ccccc1` [SELEGILINE]: the “inhibition (INH)” value in data set [2] and in data set [3] was “Active” in each case.
What is called Ki is the dissociation constant of the complex between target and ligand, obtained from inhibition or displacement. Consider `COc1cc(C2=NN(S(=O)(=O)c3ccc(C)cc3)C(c3ccc(Cl)cc3)C2)ccc1O` (configuration not stated), for which the Ki in [4] is 40 µM; in data set [5] it was 6000 µM. For the same compound, the Ratio Ki in data set [6] was determined as 150. Besides, the “inhibition (INH)” value in [7] and in data set [8] was “Active” throughout. The viability at 24 h, 1 µM in [9] is 91.2%. Moreover, the viability at 24 h, 5 µM in data set [10] is 79.5%. For the same compound, the viability at 24 h, 25 µM in data set [11] amounted to 64.1%. The same compound displayed a Papp at 16 h, 50 ug/ml in data set [1] of 12 ×10⁻⁶ cm/s.
With `C[C@]12CC[C@@H]3c4ccc(O)cc4CC[C@H]3[C@@H]1CC[C@@H]2O` [ESTRADIOL], the Papp at 16 h, 50 ug/ml in data set [1] was determined as 11.8 ×10⁻⁶ cm/s.
For the compound `COc1cc(C2=NN(C(=S)Nc3ccccc3)C(c3ccc(Cl)cc3)C2)ccc1O` (configuration not stated), the Ki in data set [4] was 19.6 µM; in [5], 4770 µM. The Ratio Ki in [6] is 244. The “inhibition (INH)” value in data set [7] and in [8] was “Active” each time. The viability at 24 h, 1 µM in data set [9] was determined as 95%. Further, the viability at 24 h, 5 µM in data set [10] was determined as 88.2%. The viability at 24 h, 25 µM in data set [11] came to 80.3%. Also, in [1], the Papp at 16 h, 50 ug/ml was determined as 9.55 ×10⁻⁶ cm/s.
For the compound `COc1cc(C2=NN(C(=O)c3ccccc3)C(c3ccc(Cl)cc3)C2)ccc1O` (configuration not stated), the Ki stood at 26.2 µM in data set [4] and 6000 µM in data set [5]. In [6], the Ratio Ki was determined as 229. Also, the “inhibition (INH)” value in data set [7] and in data set [8] was “Active” each time. The viability at 24 h, 1 µM in data set [9] is 90%. In data set [10], the viability at 24 h, 5 µM was 86.3%. The viability at 24 h, 25 µM in [11] worked out at 78.2%.
Consider `O=C(NCCN1CCOCC1)c1ccc(Cl)cc1` [MOCLOBEMIDE], for which the “inhibition (INH)” value in [7] and in [8] was “Active” in each case.
`NCCNC(=O)c1ccc(Cl)cn1` [LAZABEMIDE]: in data set [4], the Ki amounted to 7900 µM. In addition, the “inhibition (INH)” value in data set [7] and in data set [8] was “Active” each time.
With `COc1cc(C2=NN(C(=O)Oc3ccccc3)C(c3ccc(Cl)cc3)C2)ccc1O` (configuration not stated), the Ki in data set [4] amounted to 193 µM; in data set [5], 5770 µM. Further, the Ratio Ki in data set [6] worked out at 29.9. For the same compound, the “inhibition (INH)” value in [7] and in data set [8] was “Active” in each case. For the same compound, in data set [9], the viability at 24 h, 1 µM was 93.1%. The viability at 24 h, 5 µM in data set [10] was determined as 81.7%. Further, the viability at 24 h, 25 µM in [11] amounted to 77%.
For `COc1cc(C2=NNC(c3ccc(Cl)cc3)C2)ccc1O` (configuration not stated), the inhibition constant Ki in data set [4] was 0.08 µM; in data set [5], 140 µM. In addition, the Ratio Ki in data set [6] came out at 1750. Further, the “inhibition (INH)” value in [7] and in data set [8] was “Active” throughout. Further, the viability at 24 h, 1 µM in data set [9] was determined as 99%. For the same compound, the viability at 24 h, 5 µM in [10] is 94.5%. Besides, the viability at 24 h, 25 µM in data set [11] was determined as 90.2%. The same compound came in with an apparent permeability coefficient (Papp) at 16 h, 50 ug/ml in [1] of 13.9 ×10⁻⁶ cm/s.
